Experimental data from PMC3876027 (Journal of medicinal chemistry, 2013).
Entries after “also recorded” stand apart in the source; their conditions may differ. Values belong to the compound of their own block, whether it stands above or below them.

Key:
human M1-M4 = experiment: human mAChR selectivity, functional assay at hM1-M4; assay type: cell-based; settings: for IC50: read-out: hM1-M4 IC50, each of M1, M2, M3, M4
human M1 = molecular target: T1, human M1 (Homo sapiens, UniProt P11229); experiment: HTS counter-screen in CHO cells expressing human M1; assay type: cell-based; settings: confirmed HTS hit sample
T1 sequence (P11229 1-460): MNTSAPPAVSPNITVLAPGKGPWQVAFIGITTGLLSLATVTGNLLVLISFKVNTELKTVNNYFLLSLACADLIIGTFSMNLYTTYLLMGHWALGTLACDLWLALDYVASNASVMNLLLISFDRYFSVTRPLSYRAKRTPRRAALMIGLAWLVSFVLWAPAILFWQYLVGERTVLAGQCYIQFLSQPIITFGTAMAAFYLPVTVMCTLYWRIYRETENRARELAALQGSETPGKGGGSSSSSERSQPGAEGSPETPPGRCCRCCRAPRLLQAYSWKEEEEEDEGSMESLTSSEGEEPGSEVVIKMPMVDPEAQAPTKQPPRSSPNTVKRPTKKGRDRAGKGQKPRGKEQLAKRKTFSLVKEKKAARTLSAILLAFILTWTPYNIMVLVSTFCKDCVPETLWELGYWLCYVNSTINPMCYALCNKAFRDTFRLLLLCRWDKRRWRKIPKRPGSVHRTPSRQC

human M5 = molecular target: T2, human M5 (Homo sapiens, UniProt P08912); experiment: functional calcium mobilization assay in CHO cells stably expressing human M5; assay type: cell-based
T2 sequence (P08912 1-532): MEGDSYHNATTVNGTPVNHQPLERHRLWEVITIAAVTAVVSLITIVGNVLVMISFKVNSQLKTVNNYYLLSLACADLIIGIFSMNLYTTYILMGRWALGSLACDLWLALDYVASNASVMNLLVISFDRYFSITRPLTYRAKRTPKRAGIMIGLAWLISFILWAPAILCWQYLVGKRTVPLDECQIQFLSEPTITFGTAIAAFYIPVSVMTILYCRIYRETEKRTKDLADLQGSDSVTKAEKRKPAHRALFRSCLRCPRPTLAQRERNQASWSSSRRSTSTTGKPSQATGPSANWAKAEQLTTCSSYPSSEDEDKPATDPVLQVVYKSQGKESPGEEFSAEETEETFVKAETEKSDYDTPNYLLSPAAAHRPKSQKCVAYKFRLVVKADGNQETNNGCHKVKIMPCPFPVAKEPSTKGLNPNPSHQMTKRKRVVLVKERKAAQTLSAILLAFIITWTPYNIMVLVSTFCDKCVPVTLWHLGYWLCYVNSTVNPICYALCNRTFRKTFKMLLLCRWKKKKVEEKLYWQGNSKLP

human M4 = molecular target: T3, human M4 (Homo sapiens, UniProt P08173); experiment: HTS counter-screen in CHO cells expressing human M4; assay type: cell-based; settings: confirmed HTS hit sample
T3 sequence (P08173 1-479): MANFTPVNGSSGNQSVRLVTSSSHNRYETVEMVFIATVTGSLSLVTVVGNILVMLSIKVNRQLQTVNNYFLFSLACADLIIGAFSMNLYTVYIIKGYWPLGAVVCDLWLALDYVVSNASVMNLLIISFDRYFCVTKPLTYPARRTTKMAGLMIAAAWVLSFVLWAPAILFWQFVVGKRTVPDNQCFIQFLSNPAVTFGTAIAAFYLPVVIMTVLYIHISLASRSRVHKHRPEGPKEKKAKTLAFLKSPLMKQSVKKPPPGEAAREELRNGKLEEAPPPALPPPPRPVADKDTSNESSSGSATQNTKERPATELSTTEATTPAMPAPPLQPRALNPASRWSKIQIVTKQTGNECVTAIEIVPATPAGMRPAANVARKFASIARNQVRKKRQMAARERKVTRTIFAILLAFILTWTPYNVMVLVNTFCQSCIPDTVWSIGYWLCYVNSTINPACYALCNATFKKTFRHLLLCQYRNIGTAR

[1] = hepatic microsomal intrinsic clearance, human; assay type: in vitro ADME; settings: liver microsomes
CB1 = CB1 (Homo sapiens, UniProt P21554); experiment: subsequent functional assay at CB1
[2] = hepatic microsomal intrinsic clearance, rat; assay type: in vitro ADME; settings: Sprague-Dawley, liver microsomes
[3] = IV pharmacokinetics in male cynomolgus monkey; assay type: in vivo; settings: plasma, 1 mg/kg
[4] = Eurofins radioligand binding panel; settings: panel of 68 targets
[5] = hepatic microsomal intrinsic clearance, cynomolgus monkey; assay type: in vitro ADME
hM5 [6] = molecular target: T4, hM5 (Homo sapiens, UniProt P08912); experiment: [3H]-NMS dissociation kinetics with hM5 cell membranes; assay type: binding
T4 sequence (P08912 1-532): T2 sequence (P08912 1-532)

hM5 [7] = molecular target: T4, hM5; experiment: [3H]-NMS competition binding in membranes prepared from hM5 cells; settings: N=3; compared to atropine
rat M1-M4 = experiment: rat mAChR selectivity, functional assay at rM1-M4; assay type: cell-based

Chain of CB1 (P21554 whole entry, species assumed): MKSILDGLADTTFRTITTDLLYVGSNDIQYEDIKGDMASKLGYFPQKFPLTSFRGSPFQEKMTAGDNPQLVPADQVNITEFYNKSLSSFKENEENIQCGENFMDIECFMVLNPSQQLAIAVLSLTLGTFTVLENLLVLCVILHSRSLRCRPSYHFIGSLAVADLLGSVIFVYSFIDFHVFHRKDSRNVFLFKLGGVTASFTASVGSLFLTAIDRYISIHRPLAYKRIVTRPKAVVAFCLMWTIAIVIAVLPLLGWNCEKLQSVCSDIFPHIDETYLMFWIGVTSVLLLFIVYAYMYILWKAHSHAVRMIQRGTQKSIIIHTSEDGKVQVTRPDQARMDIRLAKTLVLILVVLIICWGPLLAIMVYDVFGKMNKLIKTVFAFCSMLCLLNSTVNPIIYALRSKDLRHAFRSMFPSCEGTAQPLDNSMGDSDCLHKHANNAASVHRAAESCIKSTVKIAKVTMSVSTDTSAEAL

IC50 (human M1-M4): > 30 µM
SMILES: O=C(c1ccc(F)c(F)c1)N1CCN2C(=O)c3ccccc3C12c1ccc(Cl)cc1 (centres unmarked) [5g]

activity on M1 (human M1): inactive | IC50 (human M5): > 10 µM | IC50 (human M1-M4): > 30 µM | activity on M4 (human M4): inactive
SMILES: O=C(c1ccc(F)cc1)N1CCN2C(=O)c3ccccc3C12c1ccccc1 (centres unmarked) [compound 1]

IC50 (human M1-M4): > 30 µM
SMILES: O=C(c1ccc(F)c(F)c1)N1CCN2C(=O)c3ccccc3C12c1ccccc1 (centres unmarked) [4g]

CLint scaled at 1 µM [1]: 2.6 mL/min/kg | functional activity at CB1 (CB1): no functional activity | CLint scaled at 1 µM [2]: 24 mL/min/kg | clearance [3]: 3 mL/min/kg | number of targets with significant binding (>50% inhibition @10 μM) [4]: 1 | IC50 (human M1-M4): > 30 µM | Predicted CLhep ([5]; from CLint in well-stirred model, uncorrected for fraction unbound in plasma): 14 mL/min/kg | CLint scaled ([5]; liver microsomes): 20 mL/min/kg | [3H]-NMS dissociation t1/2 (hM5 [6]; atropine (+8), N=3): 1.15 h | effect on the dissociation rate of [3H]-NMS (hM5 [6]; hM5 cell membranes): decreased the dissociation rate | IC50 (rat M1-M4; read-out: rM1-M4 IC50, each of rat M1, M2, M3, M4): > 30 µM
SMILES: O=C(c1ccc(F)c(F)c1)N1CCN2C(=O)c3ccccc3[C@@]12c1ccc(Cl)cc1 [compound 8, (S)-9b-(4-chlorophenyl)-1-(3,4-difluorobenzoyl)-2,3-dihydro-1H-imidazo[2,1-a]isoindol-5(9bH)-one]
activity at human M1-M4 (human M1-M4): inactive | competition with [3H]-NMS for binding to hM5 (hM5 [7]): no competition; also recorded: does not bind at the M5 orthosteric site | activity at rat M1-M4 (rat M1-M4): inactive
